According to patent US9084828B2, “Oligomer-protein tyrosine kinase inhibitor conjugates” (Nektar Therapeutics, priority 2009, dated 2015):

Assays:
IKK-beta = biological target: T1, IKK-beta (Homo sapiens, UniProt O14920); assay: Activity against various protein tyrosine kinases: IKK-beta; type: biochemical
T1 sequence (O14920 1-756): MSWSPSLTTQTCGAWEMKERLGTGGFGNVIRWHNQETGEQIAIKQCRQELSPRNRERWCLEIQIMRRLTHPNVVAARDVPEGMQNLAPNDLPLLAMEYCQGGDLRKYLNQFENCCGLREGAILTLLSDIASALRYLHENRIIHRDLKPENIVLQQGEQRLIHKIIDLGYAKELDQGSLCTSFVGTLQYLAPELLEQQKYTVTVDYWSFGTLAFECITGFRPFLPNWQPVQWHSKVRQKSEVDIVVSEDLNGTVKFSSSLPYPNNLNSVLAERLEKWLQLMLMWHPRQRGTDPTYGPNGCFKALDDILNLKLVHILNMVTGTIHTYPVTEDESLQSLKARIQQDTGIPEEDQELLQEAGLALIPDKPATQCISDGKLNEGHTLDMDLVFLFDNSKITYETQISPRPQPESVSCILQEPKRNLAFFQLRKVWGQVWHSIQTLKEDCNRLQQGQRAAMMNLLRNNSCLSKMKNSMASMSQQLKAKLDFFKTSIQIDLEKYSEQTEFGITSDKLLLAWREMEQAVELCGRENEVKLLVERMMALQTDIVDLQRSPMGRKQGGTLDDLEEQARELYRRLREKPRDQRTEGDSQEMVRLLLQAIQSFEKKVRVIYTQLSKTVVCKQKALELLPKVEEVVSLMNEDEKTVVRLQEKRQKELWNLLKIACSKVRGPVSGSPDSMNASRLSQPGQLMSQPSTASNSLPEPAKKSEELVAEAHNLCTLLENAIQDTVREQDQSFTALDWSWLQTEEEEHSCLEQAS

LYN = LYN (Homo sapiens, UniProt P07948); assay: Activity against various protein tyrosine kinases: LYN; type: biochemical
FGFR2(N549H) = FGFR2(N549H) (Homo sapiens, UniProt P21802, N549H); assay: Activity against various protein tyrosine kinases: FGFR2(N549H); type: biochemical
ABL = ABL (Homo sapiens, UniProt P00519); assay: ABL tyrosine kinase inhibition, off-chip incubation mobility-shift kinase assay (Caliper LABCHIP 3000); details: for IC50: ABL, ATP at Km 14 μM, unit inferred; for ABL AVG % Activity at Specific Concentration: average of replicate wells
MAPKAPK3 = MAPKAPK3 (Homo sapiens, UniProt Q16644); assay: Activity against various protein tyrosine kinases: MAPKAPK3; type: biochemical
LCK = LCK (Homo sapiens, UniProt P06239); assay: Activity against various protein tyrosine kinases: LCK; type: biochemical
Fer = Fer (Homo sapiens, UniProt P16591); assay: Activity against various protein tyrosine kinases: Fer; type: biochemical
BTK = BTK (Homo sapiens, UniProt Q06187); assay: Activity against various protein tyrosine kinases: BTK; type: biochemical
Description: Using techniques know those of ordinary skill in the art, compounds were tested for activity against various protein tyrosine kinases.

YES = YES (Homo sapiens, UniProt P07947); assay: Activity against various protein tyrosine kinases: YES; type: biochemical
TSSK2 = biological target: T2, TSSK2 (Homo sapiens, UniProt Q96PF2); assay: Activity against various protein tyrosine kinases: TSSK2; type: biochemical
T2 sequence (Q96PF2 1-358): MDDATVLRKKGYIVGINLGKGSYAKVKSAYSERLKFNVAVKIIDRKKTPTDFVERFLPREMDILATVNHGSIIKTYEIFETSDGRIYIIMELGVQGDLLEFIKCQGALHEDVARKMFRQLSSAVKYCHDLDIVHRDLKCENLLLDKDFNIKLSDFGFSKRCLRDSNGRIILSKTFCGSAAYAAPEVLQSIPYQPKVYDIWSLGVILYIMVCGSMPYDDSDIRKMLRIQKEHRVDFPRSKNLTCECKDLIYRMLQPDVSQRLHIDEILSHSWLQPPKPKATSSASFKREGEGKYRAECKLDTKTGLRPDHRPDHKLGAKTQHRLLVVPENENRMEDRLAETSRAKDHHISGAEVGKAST

EGFR = EGFR (Homo sapiens, UniProt P00533); assay: Activity against various protein tyrosine kinases: EGFR; type: biochemical
PDGFR_beta = PDGFR_beta (Homo sapiens, UniProt P09619); assay: Activity against various protein tyrosine kinases: PDGFR_beta; type: biochemical
Erk2 = Erk2 (Homo sapiens, UniProt P28482); assay: Activity against various protein tyrosine kinases: Erk2; type: biochemical
TSSK1 = biological target: T3, TSSK1 (Homo sapiens, UniProt Q9BXA7); assay: Activity against various protein tyrosine kinases: TSSK1; type: biochemical
T3 sequence (Q9BXA7 1-367): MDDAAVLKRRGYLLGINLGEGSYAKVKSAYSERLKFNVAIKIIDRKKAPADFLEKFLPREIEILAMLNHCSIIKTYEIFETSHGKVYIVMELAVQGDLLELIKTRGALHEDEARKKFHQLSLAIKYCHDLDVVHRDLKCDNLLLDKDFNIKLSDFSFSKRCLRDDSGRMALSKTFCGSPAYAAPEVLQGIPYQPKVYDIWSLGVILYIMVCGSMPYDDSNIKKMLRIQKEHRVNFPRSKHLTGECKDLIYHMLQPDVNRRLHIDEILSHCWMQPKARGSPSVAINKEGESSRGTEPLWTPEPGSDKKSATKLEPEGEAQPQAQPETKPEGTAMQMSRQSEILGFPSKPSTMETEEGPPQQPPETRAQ

CHK2 = CHK2 (Homo sapiens, UniProt O96017); assay: Activity against various protein tyrosine kinases: CHK2; type: biochemical
GSK3b = GSK3b (Homo sapiens, UniProt P49841); assay: Activity against various protein tyrosine kinases: GSK3b; type: biochemical
[1] = at 1.0E−09 (concentration unit not given)
[2] = at 1.0E−10 (concentration unit not given)
[3] = at 1.0E−11 (concentration unit not given)
[4] = at 3.0E−09 (concentration unit not given)
[5] = at 3.0E−10 (concentration unit not given)
[6] = at 3.0E−11 (concentration unit not given)

Sequence of MAPKAPK3 (Q16644 whole entry, species assumed): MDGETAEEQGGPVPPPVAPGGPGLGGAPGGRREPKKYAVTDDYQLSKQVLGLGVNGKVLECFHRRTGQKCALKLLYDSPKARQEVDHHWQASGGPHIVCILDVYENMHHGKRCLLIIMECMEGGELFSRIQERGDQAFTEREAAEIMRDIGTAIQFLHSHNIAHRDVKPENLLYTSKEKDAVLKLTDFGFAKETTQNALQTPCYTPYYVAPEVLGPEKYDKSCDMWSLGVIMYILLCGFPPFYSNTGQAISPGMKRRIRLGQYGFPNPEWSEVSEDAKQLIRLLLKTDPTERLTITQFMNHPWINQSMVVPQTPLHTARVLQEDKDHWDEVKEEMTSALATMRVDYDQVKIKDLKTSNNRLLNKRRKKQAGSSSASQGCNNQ
Sequence of PDGFR_beta (P09619 33-1106, species assumed): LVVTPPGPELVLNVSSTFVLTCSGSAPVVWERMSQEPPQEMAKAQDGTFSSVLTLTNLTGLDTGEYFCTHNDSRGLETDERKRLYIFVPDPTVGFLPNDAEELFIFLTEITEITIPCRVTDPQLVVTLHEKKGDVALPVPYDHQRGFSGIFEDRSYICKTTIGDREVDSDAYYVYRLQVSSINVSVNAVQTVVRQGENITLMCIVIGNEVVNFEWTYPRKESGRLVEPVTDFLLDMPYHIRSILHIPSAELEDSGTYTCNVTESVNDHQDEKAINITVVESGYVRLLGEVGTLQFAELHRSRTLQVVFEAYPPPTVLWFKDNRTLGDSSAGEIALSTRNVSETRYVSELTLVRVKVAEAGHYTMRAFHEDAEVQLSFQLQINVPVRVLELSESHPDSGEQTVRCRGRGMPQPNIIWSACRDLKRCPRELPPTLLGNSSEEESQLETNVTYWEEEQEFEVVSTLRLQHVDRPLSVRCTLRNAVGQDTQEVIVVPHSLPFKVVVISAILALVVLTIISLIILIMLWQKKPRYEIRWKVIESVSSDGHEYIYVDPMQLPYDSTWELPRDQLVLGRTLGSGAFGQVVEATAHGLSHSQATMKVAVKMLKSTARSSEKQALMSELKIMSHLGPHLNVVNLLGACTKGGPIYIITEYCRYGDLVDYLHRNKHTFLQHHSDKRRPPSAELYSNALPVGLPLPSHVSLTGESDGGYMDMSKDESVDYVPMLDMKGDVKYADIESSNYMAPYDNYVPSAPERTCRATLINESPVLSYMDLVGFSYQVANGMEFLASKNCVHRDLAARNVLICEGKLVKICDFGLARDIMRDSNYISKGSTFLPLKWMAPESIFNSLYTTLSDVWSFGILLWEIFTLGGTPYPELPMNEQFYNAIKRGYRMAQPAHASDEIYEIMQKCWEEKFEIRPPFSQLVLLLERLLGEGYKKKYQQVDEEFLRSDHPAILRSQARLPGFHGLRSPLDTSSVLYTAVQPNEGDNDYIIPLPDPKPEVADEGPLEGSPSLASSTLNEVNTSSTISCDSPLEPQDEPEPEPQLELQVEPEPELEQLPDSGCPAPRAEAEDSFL
Sequence of CHK2 (O96017 whole entry, species assumed): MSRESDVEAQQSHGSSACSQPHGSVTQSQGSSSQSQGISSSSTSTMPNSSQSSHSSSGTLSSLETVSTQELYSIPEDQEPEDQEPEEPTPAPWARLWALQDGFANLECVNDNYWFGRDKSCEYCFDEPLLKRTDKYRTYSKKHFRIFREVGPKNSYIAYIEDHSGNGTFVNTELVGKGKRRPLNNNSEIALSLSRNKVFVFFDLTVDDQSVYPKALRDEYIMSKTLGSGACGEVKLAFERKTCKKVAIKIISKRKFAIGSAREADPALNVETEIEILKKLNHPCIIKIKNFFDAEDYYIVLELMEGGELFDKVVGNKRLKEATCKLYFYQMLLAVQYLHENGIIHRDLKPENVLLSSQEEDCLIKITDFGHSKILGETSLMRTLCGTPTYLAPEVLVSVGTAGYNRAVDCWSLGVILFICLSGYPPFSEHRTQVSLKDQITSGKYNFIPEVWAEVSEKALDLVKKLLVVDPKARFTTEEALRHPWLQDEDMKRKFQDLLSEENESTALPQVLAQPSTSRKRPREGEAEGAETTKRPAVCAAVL
Sequence of GSK3b (P49841 whole entry, species assumed): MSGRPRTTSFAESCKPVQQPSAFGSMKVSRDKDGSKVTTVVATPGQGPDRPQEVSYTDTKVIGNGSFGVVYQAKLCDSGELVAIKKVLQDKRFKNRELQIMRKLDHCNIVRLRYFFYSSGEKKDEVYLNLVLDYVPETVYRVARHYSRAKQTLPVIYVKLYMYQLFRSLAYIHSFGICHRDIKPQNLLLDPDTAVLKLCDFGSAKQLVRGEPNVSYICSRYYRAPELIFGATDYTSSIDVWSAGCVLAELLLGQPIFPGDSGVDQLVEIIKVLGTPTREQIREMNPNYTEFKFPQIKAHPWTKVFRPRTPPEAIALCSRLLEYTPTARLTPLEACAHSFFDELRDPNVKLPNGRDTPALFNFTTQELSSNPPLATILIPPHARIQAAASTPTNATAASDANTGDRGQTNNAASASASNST
Sequence of LCK (P06239 whole entry, species assumed): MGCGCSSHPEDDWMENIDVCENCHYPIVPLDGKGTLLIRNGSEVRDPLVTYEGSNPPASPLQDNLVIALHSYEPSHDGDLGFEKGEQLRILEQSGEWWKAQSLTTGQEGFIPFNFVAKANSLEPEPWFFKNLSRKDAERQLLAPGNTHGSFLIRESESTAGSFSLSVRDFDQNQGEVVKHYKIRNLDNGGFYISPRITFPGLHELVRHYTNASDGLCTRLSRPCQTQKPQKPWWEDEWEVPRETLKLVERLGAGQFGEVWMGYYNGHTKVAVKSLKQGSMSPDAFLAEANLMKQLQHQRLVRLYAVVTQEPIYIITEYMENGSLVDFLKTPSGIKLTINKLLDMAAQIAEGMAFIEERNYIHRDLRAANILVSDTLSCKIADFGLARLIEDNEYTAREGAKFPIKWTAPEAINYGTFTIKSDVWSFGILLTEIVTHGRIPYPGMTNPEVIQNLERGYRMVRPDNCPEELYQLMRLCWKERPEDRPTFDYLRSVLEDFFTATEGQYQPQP
Sequence of Erk2 (P28482 whole entry, species assumed): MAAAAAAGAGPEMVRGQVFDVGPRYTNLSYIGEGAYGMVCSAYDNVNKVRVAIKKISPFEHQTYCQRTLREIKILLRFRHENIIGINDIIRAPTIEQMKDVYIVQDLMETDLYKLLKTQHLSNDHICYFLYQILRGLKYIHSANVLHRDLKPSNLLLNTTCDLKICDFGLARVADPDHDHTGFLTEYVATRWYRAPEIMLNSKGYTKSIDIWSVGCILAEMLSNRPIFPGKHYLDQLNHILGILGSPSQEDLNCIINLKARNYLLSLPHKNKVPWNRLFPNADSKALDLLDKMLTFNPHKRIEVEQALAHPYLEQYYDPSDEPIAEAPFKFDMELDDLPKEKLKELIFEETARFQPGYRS
Sequence of FGFR2(N549H) (P21802 22-821 N549H, species assumed): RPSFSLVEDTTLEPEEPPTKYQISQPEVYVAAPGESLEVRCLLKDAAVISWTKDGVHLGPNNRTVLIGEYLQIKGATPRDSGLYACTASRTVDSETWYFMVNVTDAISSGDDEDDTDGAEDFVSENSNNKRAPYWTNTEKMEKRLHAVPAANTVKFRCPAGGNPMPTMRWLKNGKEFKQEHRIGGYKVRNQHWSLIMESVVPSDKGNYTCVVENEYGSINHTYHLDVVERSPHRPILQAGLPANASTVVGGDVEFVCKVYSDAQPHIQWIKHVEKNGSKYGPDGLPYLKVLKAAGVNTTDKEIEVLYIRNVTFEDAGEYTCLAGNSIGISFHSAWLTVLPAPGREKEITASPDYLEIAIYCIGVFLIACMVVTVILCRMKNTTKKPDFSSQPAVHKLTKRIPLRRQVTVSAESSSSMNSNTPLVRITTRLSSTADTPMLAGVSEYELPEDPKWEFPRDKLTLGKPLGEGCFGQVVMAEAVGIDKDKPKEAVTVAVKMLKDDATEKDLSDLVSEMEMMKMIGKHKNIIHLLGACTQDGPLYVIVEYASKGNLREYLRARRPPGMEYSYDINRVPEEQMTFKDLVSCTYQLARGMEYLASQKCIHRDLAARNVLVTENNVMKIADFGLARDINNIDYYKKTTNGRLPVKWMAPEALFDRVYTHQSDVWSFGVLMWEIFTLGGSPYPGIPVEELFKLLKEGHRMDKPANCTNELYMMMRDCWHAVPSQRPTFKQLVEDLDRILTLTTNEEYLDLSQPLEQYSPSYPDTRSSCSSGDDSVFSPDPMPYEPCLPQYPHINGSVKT
Sequence of BTK (Q06187 whole entry, species assumed): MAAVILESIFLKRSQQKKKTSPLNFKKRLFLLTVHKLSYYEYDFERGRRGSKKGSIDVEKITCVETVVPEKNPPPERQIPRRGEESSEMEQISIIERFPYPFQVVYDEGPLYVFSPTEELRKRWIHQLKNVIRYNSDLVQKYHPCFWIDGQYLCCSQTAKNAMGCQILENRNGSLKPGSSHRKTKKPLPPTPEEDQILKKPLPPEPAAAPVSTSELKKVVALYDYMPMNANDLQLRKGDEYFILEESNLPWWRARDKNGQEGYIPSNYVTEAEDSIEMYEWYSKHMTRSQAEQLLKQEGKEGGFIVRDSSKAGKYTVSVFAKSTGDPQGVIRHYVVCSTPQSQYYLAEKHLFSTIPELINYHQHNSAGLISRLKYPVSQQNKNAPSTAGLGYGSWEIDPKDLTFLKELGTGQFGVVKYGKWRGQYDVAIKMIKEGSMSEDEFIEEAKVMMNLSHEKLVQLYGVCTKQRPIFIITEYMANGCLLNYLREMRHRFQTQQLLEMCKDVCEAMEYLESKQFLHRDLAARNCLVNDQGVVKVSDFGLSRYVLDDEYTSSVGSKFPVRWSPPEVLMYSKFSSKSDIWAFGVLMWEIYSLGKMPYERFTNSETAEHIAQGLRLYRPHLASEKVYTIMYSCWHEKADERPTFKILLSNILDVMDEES

Row | SMILES | % Inhibition at 10 nM (IKK-beta) [%] | % Inhibition at 1 μM (IKK-beta) [%] | % Inhibition at 10 nM (LYN) [%] | % Inhibition at 1 μM (LYN) [%] | % Inhibition at 10 nM (FGFR2(N549H)) [%] | % Inhibition at 1 μM (FGFR2(N549H)) [%] | IC50 (ABL) [nM] | ABL AVG % Activity at Specific Concentration (ABL; [1]) [%] | ABL AVG % Activity at Specific Concentration (ABL; [2]) [%] | ABL AVG % Activity at Specific Concentration (ABL; [3]) [%] | ABL AVG % Activity at Specific Concentration (ABL; [4]) [%] | ABL AVG % Activity at Specific Concentration (ABL; [5]) [%] | ABL AVG % Activity at Specific Concentration (ABL; [6]) [%] | % Inhibition at 10 nM (MAPKAPK3) [%] | % Inhibition at 1 μM (MAPKAPK3) [%] | % Inhibition at 10 nM (LCK) [%] | % Inhibition at 1 μM (LCK) [%] | % Inhibition at 10 nM (Fer) [%] | % Inhibition at 1 μM (Fer) [%] | % Inhibition at 10 nM (BTK) [%] | also measured
1 | COCCOCCOCCNC(=O)OCCN1CCN(c2cc(Nc3ncc(C(=O)Nc4c(C)cccc4Cl)s3)nc(C)n2)CC1 [mPEG3-NHCOO-Dasatinib] | 0 | 1 | 99 | 99 | 7 | 75 | 0.3 | 4 | 81 | 99 | 0 | 47 | 95 | 5 | 3 | 97 | 98 | −4 | 5 | 99 | % Inhibition at 1 μM (BTK): 100%; % Inhibition at 10 nM (YES): 100%; % Inhibition at 1 μM (YES): 100%; % Inhibition at 10 nM (TSSK2): −1%; % Inhibition at 1 μM (TSSK2): 0%; % Inhibition at 10 nM (EGFR): 3%; % Inhibition at 1 μM (EGFR): 76%; % Inhibition at 10 nM (PDGFR_beta): 48%; % Inhibition at 1 μM (PDGFR_beta): 99%; % Inhibition at 10 nM (Erk2): 6%; % Inhibition at 1 μM (Erk2): 11%; % Inhibition at 10 nM (TSSK1): −1%; % Inhibition at 1 μM (TSSK1): 0%; % Inhibition at 10 nM (CHK2): 1%; % Inhibition at 1 μM (CHK2): 11%; % Inhibition at 10 nM (GSK3b): 4%; % Inhibition at 1 μM (GSK3b): 1%
2 | COCCOCCOCCOCCOCCOCCOCCNC(=O)OCCN1CCN(c2cc(Nc3ncc(C(=O)Nc4c(C)cccc4Cl)s3)nc(C)n2)CC1 [mPEG7-NHCOO-Dasatinib] | 2 | 2 | 98 | 98 | 5 | 63 | 0.32 | 4 | 80 | 98 | −1 | 48 | 91 | 1 | 0 | 98 | 98 | −2 | 5 | 99 | % Inhibition at 1 μM (BTK): 100%; % Inhibition at 10 nM (YES): 100%; % Inhibition at 1 μM (YES): 102%; % Inhibition at 10 nM (TSSK2): 3%; % Inhibition at 1 μM (TSSK2): −2%; % Inhibition at 10 nM (EGFR): 6%; % Inhibition at 1 μM (EGFR): 62%; % Inhibition at 10 nM (PDGFR_beta): 60%; % Inhibition at 1 μM (PDGFR_beta): 100%; % Inhibition at 10 nM (Erk2): 3%; % Inhibition at 1 μM (Erk2): 2%; % Inhibition at 10 nM (TSSK1): −3%; % Inhibition at 1 μM (TSSK1): −5%; % Inhibition at 10 nM (CHK2): 2%; % Inhibition at 1 μM (CHK2): 1%; % Inhibition at 10 nM (GSK3b): 3%; % Inhibition at 1 μM (GSK3b): 2%
